What was measured:
[1] = In vivo brain/plasma ratio determination in CD-1 mice; conditions: for Mean brain/plasma ratio: 2 hours; for maximum brain/plasma ratio: day 5, once daily i.p. dosing
Method: Five groups of CD-1 mice (both sexes; individual weights 20 to 40 g) were dosed intraperitoneally with different doses of TRV 1067 (0, 3, 10, 30, and 100 mg/kg). DMSO (100%) was used as a vehicle. Animals had ad libitum access to rodent chow. Some animals were euthanized 2 hours after dosing on Day 1 and brains were harvested. Blood (0.15 mL) was collected 15 minutes after dosing and at sacrifice. The remaining animals were dosed once daily for 5 consecutive days. Blood samples were collected 15 minutes after dosing on Day 1. On Day 5, blood samples were collected 15 minutes and 2 hours after dosing and brains were harvested.
Standards were prepared in CD-1 mouse plasma containing sodium heparin as an anticoagulant and CD-1 mouse brain homogenate. An eight-point calibration curve was prepared at concentrations of 1000, 500, 100, 50, 10, 5, 1, and 0.5 ng/mL by serial dilution. Standard samples were treated identically to the study samples. Brain samples were homogenized with a Virsonic 100 ultrasonic homogenizer. Each brain sample was first weighed, and then an appropriate volume of 20:80 methanol:water was added to make a 4 mL/1 g sample. Samples were then homogenized on ice, and stored frozen until analysis. Plasma and brain homogenate samples were extracted via acetonitrile precipitation on a Tomtec Quadra 96-Model 320 liquid handling system in a 96-well plate format. A Perkin Elmer series 200 micropumps and LEAP Autosampler high-performance liquid chromatograph (HPLC) was used with a 0.2% formic acid/water/acetonitrile solvent system for separation purposes. The compound was quantitated using a PE Sciex API3000 mass spectrometer connected to the HPLC; negative polarity was used, with TRV 1067 analyzed using ion settings of 347.1 mass/charge ratio for the precursor and 212.1 for the product ions, respectively. Warfarin was used in negative polarity (307.1 precursor, 250.0 product) as an internal standard.

[2] = test system: MDR1-MDCK cell monolayers; test: Blood-brain barrier penetration potential using MDR1-MDCK cell monolayers; format: in vitro ADME; conditions: 5 μM, 120 min
From the text: (§1) This assay is used to determine the blood-brain barrier (BBB) penetration potential of a test compound using MDR1-MDCK cell monolayers. Further details on this method may be found in Taub M E, et al., Functional assessment of multiple Pglycoprotein (P-gp) probe substrates: Influence of cell line and modulator concentration on P-gp activity. Drug Metab Dispos. 2005 November; 33(11): 1679-87 and Wang Q, et al., Evaluation of the MDR-MDCK cell line as a permeability screen for the blood-brain barrier. Int J. Pharm. 2005 Jan. 20; 288(2):349-59; each of which is hereby incorporated by reference. Test compound was formulated in 300 μL of DMSO at 10 mM and diluted to 5 μM in HBSSg with maximum DMSO concentration not greater than 1%. Confluent monolayers of MDR1-MDCK cells, 7 to 11 days old, were used. A receiver well, having apical and basolateral sides at pH 7.4, was used with 1% BSA in modified Hanks buffer (HBSSg). Two monolayers were dosed with test compound in each direction (N=2). Apical side dosing was used for A-B assessment and basolateral side was used for B-A assessment; taken together, this information provides a bidirectional permeability potential. Apical and basolateral sides were sampled at 120 minutes and concentrations of test compound were determined using an LC-MS/MS method with a minimum 4 point calibration curve. Apparent permeability (Papp) in both directions (A-B and B-A) was calculated, as was the efflux ratio (Papp B-A)/(Papp A-B).

[3] = target: T1, Aβ40 (Homo sapiens, UniProt P05067); test: Thioflavin T (ThT) Aβ aggregation assay; format: biochemical; conditions: 20 μM Aβ40, 37 degrees C
T1 construct: pre-treated Aβ40 (40 μM in 20 mM Tris, pH 7.4)
Procedure, shortened: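 Aβ40 was HFIP-pretreated to remove preformed aggregates; 20 µM Aβ40 incubated with compound and 4 µM ThT in 20 mM Tris pH 7.4, 150 mM NaCl, 1% DMSO at 37 °C. Fluorescence (ex 450/em 480 nm) read every 15 min after shaking; inhibition judged by attenuated fluorescence rise versus DMSO controls.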

[4] = Metabolic stability in mouse liver microsomes; format: in vitro ADME; conditions: 1 μM compound, 0.5 mg/mL microsomal protein, 1 mM NADPH
Method: This assay is used to determine the percent remaining and intrinsic clearance of a test compound incubated with pooled mouse liver microsomes in the presence of NADPH. Further details on this method may be found in Jeffrey P, et al., Utility of metabolic stability screening: comparison of in vitro and in vivo clearance. enobiotica. 2001 August-September; 31(8-9):591-8 and Lin J H, et al., Role of pharmacokinetics and metabolism in drug discovery and development. Pharmacol Rev. 1997; 49(4):403-49; each of which is hereby incorporated by reference. Test compound was formulated in 300 μL of DMSO at 10 mM and was diluted to 1 μM with final concentration of organic solvent <0.25% for the experiment. Pooled liver microsomes were prepared from male mice, with 1 mM NADPH. Test compound was incubated at 37 degrees Celsius in buffer containing 0.5 mg/mL microsomal protein; the reaction was initiated by adding cofactors and sampled at 0, 10, 20, 30, and 60 minutes. A positive control (5 μM testosterone) was incubated and initiated in parallel for quality control. Samples were analyzed using an LTQ-Orbitrap XL mass spectrometer; HRMS was used to determine the peak area response ratio (peak area corresponding to test compound or control divided by that of an analytical internal standard) without running a standard curve.
Results were reported for selected compounds in the table of Example 1, as % test compound remaining after 60 minutes. Compounds which have less than about 5% remaining are not considered to be metabolically stable in mouse liver microsomes, while compounds with more than about 5% remaining are considered to be metabolically stable in mouse liver microsomes.

[5] = target: alpha-synuclein (Homo sapiens, UniProt P37840); test: alpha-synuclein aggregation assay (ThT, analogous to Example 1); format: biochemical; conditions: 10 μM compound
Method: Analogous to the method of Example 1, the ability of compounds to inhibit the aggregation of alpha-synuclein was performed by substituting Aβ with alpha-synuclein.

[6] = Blood-brain barrier penetration potential using MDR1-MDCK cell monolayers; format: in vitro ADME; conditions: dog
From the text: as §1

T1 sequence (P05067 672-711 limits assumed): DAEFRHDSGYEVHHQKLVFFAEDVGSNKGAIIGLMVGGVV

SMILES | blood-brain barrier crossing in vivo ([1]; CD-1 mice, 3-100 mg/kg i.p.) | Mean brain/plasma ratio ([1]; female CD-1 mice, Day 1, 3 mg/kg intraperitoneally) | Mean brain/plasma ratio ([1]; female CD-1 mice, Day 1, 100 mg/kg intraperitoneally) | maximum brain/plasma ratio ([1]; female CD-1 mice) | Mean brain/plasma ratio ([1]; male CD-1 mice, Day 1, 3 mg/kg intraperitoneally) | Mean brain/plasma ratio ([1]; male CD-1 mice, Day 1, 100 mg/kg intraperitoneally) | maximum brain/plasma ratio ([1]; male CD-1 mice) | Efflux ratio (Papp B-A)/(Papp A-B) [2] | Papp A-B × 10^−6 cm/s ([2]; apical dosing, pH 7.4) | Papp B-A × 10^−6 cm/s ([2]; basolateral dosing, pH 7.4) | IC50 [3] | Stability in mouse liver microsomes (% test compound remaining after 60 min) [4] | inhibition of alpha-synuclein aggregation [5] | Papp A→B at 120 min, 5 µM ([6]; MDCK-MDR1, apical dosing, pH 7.4, read-out: Papp A-B × 10^−6 cm/s) | Papp B→A at 120 min, 5 µM ([6]; MDCK-MDR1, basolateral dosing, pH 7.4, read-out: Papp B-A × 10^−6 cm/s) | efflux ratio at 120 min, 5 µM ([6]; MDCK-MDR1, pH 7.4, read-out: Efflux ratio (Papp B-A)/(Papp A-B))
O=C(O)c1cccc(-c2ccc([N+](=O)[O-])c(NCc3ccccc3)c2)c1 [TRV 1067, 3′-(benzylamino)-4′-nitrophenyl-3-carboxylic acid] | did not appreciably cross the blood-brain barrier | too low to determine | 0.051 | 0.067 | too low to determine | 0.168 | 0.256 | 1.8 | 42.1 10^−6 cm/s | 74.9 10^−6 cm/s | – | – | – | – | – | –
O=[N+]([O-])c1ccc(-c2cccc(-c3nnn[nH]3)c2)cc1NCc1ccccc1 [TRV 1120, N-benzyl-4-nitro-3′-(1H-tetrazol-5-yl)-[1,1′-biphenyl]-3-amine] | – | – | – | – | – | – | – | – | – | – | 1340 ± 220 nM | 60% | inhibit alpha-synuclein aggregation at 10 μM | 38.3 ×10⁻⁶ cm/s | 47.4 ×10⁻⁶ cm/s | 1.2

From patent US20140187556A1, “ANTI-AMYLOID COMPOUNDS AND METHODS” (Treventis Corporation, priority 2011, published 2014)
